Measurements: patent publication US11078496B2, “System for F-box hormone receptor regulated protein expression in mammalian cells” (ICAHN SCHOOL OF MEDICINE AT MOUNT SINAI, priority 2016, dated 2021)

Test system: A-CHK1 mESCs
Assay: Aphidicolin sensitivity of A-CHK1 mESCs (crystal violet staining)
Assay type: cell-based, mouse
Protocol: FIG. 5A is a western blot analysis depicting endogenous CHK1 (*) and AID^47-CHK1 (A-CHK1, **) in four selected clones and in parental non-infected mESCs. […] serves as a loading control. Experiment was repeated three times for clones #1 and #2, and a representative blot is presented. In FIG. 5B, A-CHK1 #2 mESCs were treated with ethanol (“Con”) or auxin (“IAA”) for 1 day. Cells were then treated with the indicated concentrations of aphidicolin (“Aph”). Equal concentrations of DMSO were applied to all conditions. The next day, cells were stained with crystal violet and plates were scanned. […] In FIG. 5C, mESC clones were pretreated with […] aphidicolin for 1 day and were then treated with auxin for the indicated time periods. Left panel: mitotic index was calculated as the percentage of H3^pS10-positive cells with 4N DNA content, measured by flow cytometry. […] Tyr15 phosphorylation of CDK1 (“CDKlpY^15”) was detected using a phospho-specific antibody. β-Actin serves as a loading control. […]
CCE mESCs were infected with pRAIDRS A-CHK1 or GFP-A. Selected clones were analyzed for their CHK1-dependent response to aphidicolin treatment. […] Cells were then treated with 1 μM 5 aphidicolin (“Aph”) or 0.001% DMSO for 12 hours and analyzed for DNA content using propidium iodide (“PI”). […] Apoptotic index was calculated as the percentage of Annexin V-positive, 7-AAD-negative cells. […]

## C[C@@]1(CO)[C@H](O)CC[C@@]2(C)[C@H]1CC[C@H]1C[C@@H]3C[C@@]12CC[C@]3(O)CO [aphidicolin, Aphidicolin]
auxin-treated (CHK1-depleted) A-CHK1 mESCs
  aphidicolin concentration after which cells died: 0.1 mM
control-treated A-CHK1 cells versus auxin-treated cells
  fold higher aphidicolin concentration at which control cells survived: 100 fold
